In patent US20240246964A1 (Arbutus Biopharma Corporation, priority 2021, published 2024) one finds EC50 data, which are given here for 22 compounds.

Each structure is given as a SMILES string. pEC50: −log10 of the molar value.

For this assay, the target named is human PD-L1 (Homo sapiens (Human), UniProt Q9NZQ7). The assay can be described thus: T cell activation luciferase reporter cell culture system (T Cell Activation Assay). The assay is classed as cell-based. To be noted: luciferase reporter assay; PD-L1 aAPC/CHO-K1 cells with PD-1 effector Jurkat T cells. On the technique in general: A reporter such as luciferase makes a cellular process visible.
Sequence of human PD-L1 (Q9NZQ7 19-290): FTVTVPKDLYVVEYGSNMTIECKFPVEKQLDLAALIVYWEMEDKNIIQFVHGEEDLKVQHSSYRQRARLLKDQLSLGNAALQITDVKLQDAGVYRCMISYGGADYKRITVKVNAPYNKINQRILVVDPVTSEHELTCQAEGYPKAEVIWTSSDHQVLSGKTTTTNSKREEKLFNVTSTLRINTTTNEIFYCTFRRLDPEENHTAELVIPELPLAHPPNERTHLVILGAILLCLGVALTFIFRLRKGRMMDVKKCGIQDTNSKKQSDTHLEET
By pEC50 is commonly meant the EC50 on a negative log10 scale, so that one unit is a factor of ten. Compound `COC(=O)CCN1CCc2cc(-c3nccc(-c4cccc(-c5ccc(CN6CC7(CNC(=O)C7)C6)c(OC)n5)c4Cl)c3Cl)cc(OC)c2C1` [Example 273, Methyl 3-(6-(3-chloro-4-(2-chloro-3-(6-methoxy-5-((7-oxo-2,6-diazaspiro[3.4]octan-2-yl)methyl)pyridin-2-yl)phenyl)pyridin-2-yl)-8-methoxy-3,4-dihydroisoquinolin-2(1H)-yl)propanoate] gave a pEC50 of 6.94. As to `COc1nc(-c2cccc(-c3ccnc(-c4ccc5c(CNC[C@@H]6CCO6)nn(C)c5c4)c3Cl)c2Cl)ccc1CNC[C@@H]1CCC(=O)N1` [Example 235, (S)-5-((((6-(2-Chloro-3-(3-chloro-2-(1-methyl-3-(((((S)-oxetan-2-yl)methyl)amino)methyl)-1H-indazol-6-yl)pyridin-4-yl)phenyl)-2-methoxypyridin-3-yl)methyl)amino)methyl)pyrrolidin-2-one], the pEC50 was 7.19. For `CCOc1cc(-c2nccc(-c3cccc(-c4ccc(CNC5CCN(C(C)=O)CC5)c(OC)n4)c3Cl)c2Cl)cn2nc(CN[C@H]3CC[C@H](O)CC3)nc12` [Example 583, 1-(4-(((6-(2-Chloro-3-(3-chloro-2-(8-ethoxy-2-((((1r,4r)-4-hydroxycyclohexyl)amino)methyl)-[1,2,4]triazolo[1,5-a]pyridin-6-yl)pyridin-4-yl)phenyl)-2-methoxypyridin-3-yl)methyl)amino)piperidin-1-yl)ethan-1-one], the negative-log EC50 (pEC50) was at most 5.00. `COc1cc(-c2nccc(-c3cccc(-c4ccc(CN5CC6(CNC(=O)C6)C5)c(OC)n4)c3Cl)c2Cl)cc2c1CN(CCCF)CC2` [Example 250, 2-((6-(2-Chloro-3-(3-chloro-2-(2-(3-fluoropropyl)-8-methoxy-1,2,3,4-tetrahydroisoquinolin-6-yl)pyridin-4-yl)phenyl)-2-methoxypyridin-3-yl)methyl)-2,6-diazaspiro[3.4]octan-7-one] showed a negative-log EC50 (pEC50) of 7.51. In turn, `COc1cc(-c2nccc(-c3cccc(-c4ccc(CNC5CCOCC5)c(OC)n4)c3Cl)c2Cl)ccc1CN1CC2(C1)CN(C(C)=O)C2` [Example 492, 1-(6-(4-(3-chloro-4-(2-chloro-3-(6-methoxy-5-(((tetrahydro-2H-pyran-4-yl)amino)methyl)pyridin-2-yl)phenyl)pyridin-2-yl)-2-methoxybenzyl)-2,6-diazaspiro[3.3]heptan-2-yl)ethan-1-one] had a pEC50 of 7.73. The compound `COc1cc(-c2nccc(-c3cccc(NC(=O)c4ccc(CNC[C@@H]5CCC(=O)N5)cn4)c3C)c2Cl)ccc1CNCCO` [Example 750, (S)—N-(3-(3-Chloro-2-(4-(((2-hydroxyethyl)amino)methyl)-3-methoxyphenyl)pyridin-4-yl)-2-methylphenyl)-5-((((5-oxopyrrolidin-2-yl)methyl)amino)methyl)picolinamide] had a negative logarithm of the EC50 (pEC50) of 6.15. The compound `COc1cc(-c2nccc(-c3cccc(-c4ccc(CNC[C@@H]5CCC(=O)N5)c(OC)n4)c3Cl)c2Cl)cc(F)c1CNC(C)C` [Cmpd 82, (S)-5-((((6-(2-chloro-3-(3-chloro-2-(3-fluoro-4-((isopropylamino)methyl)-5-methoxyphenyl)pyridin-4-yl)phenyl)-2-methoxypyridin-3-yl)methyl)amino)methyl)pyrrolidin-2-one] gave a pEC50 of 7.22.

In the case of `COc1cc(-c2nccc(-c3cccc(-c4ccc(CNC[C@@H]5CCC(=O)N5)c(OC)n4)c3Cl)c2Cl)cc2c1CN(CCC(C)(C)O)CC2` [Cmpd 49, (S)-5-((((6-(2-chloro-3-(3-chloro-2-(2-(3-hydroxy-3-methylbutyl)-8-methoxy-1,2,3,4-tetrahydroisoquinolin-6-yl)pyridin-4-yl)phenyl)-2-methoxypyridin-3-yl)methyl)amino)methyl)pyrrolidin-2-one], the pEC50 was 7.43. Regarding `COc1cc(-c2nccc(-c3cccc(-c4ccc(CN[C@H]5C[C@](C)(O)C5)c(OC)n4)c3Cl)c2Cl)ccc1CN[C@H]1C[C@](C)(O)C1` [Example 385, (1r,3r)-3-(((6-(2-Chloro-3-(3-chloro-2-(4-((((1r,3r)-3-hydroxy-3-methylcyclobutyl)amino)methyl)-3-methoxyphenyl)pyridin-4-yl)phenyl)-2-methoxypyridin-3-yl)methyl)amino)-1-methylcyclobutan-1-ol], the pEC50 was 7.75.

As for `COCCC(=O)N1CCC(NCc2ccc(-c3cccc(-c4ccnc(-c5ccc(CNC6CCN(C(C)=O)CC6)c(OC)c5)c4Cl)c3Cl)nc2OC)CC1` [Example 607, 1-(4-(((6-(3-(2-(4-(((1-Acetylpiperidin-4-yl)amino)methyl)-3-methoxyphenyl)-3-chloropyridin-4-yl)-2-chlorophenyl)-2-methoxypyridin-3-yl)methyl)amino)piperidin-1-yl)-3-methoxypropan-1-one], the pEC50 was 7.74.

`COc1cc(-c2nccc(-c3cccc(-c4ccc(CNC5CCN(C(C)=O)CC5)c(OC)n4)c3Cl)c2Cl)ccc1CNC1CCN(C(C)=O)CC1` [Cmpd 139, 1-(4-(((6-(3-(2-(4-(((1-acetylpiperidin-4-yl)amino)methyl)-3-methoxyphenyl)-3-chloropyridin-4-yl)-2-chlorophenyl)-2-methoxypyridin-3-yl)methyl)amino)piperidin-1-yl)ethan-1-one] showed a pEC50 of 7.89.

Regarding `COc1cc(-c2nccc(-c3cccc(-c4ccc(CNC[C@@H]5CCC(=O)N5)c(OC)n4)c3Cl)c2Cl)cc(F)c1CNC[C@@H]1CCC(=O)N1` [Cmpd 10, (S)-5-((((6-(2-chloro-3-(3-chloro-2-(3-fluoro-5-methoxy-4-(((((S)-5-oxopyrrolidin-2-yl)methyl)amino)methyl)phenyl)pyridin-4-yl)phenyl)-2-methoxypyridin-3-yl)methyl)amino)methyl)pyrrolidin-2-one], the pEC50 is 7.68.

`COc1cc(-c2nccc(-c3cccc(-c4ccc(CN5CCC(NC(C)=O)CC5)c(OC)n4)c3Cl)c2Cl)ccc1CNC[C@H]1CCC(=O)N1` [Example 356, (R)—N-(1-((6-(2-Chloro-3-(3-chloro-2-(3-methoxy-4-((((5-oxopyrrolidin-2-yl)methyl)amino)methyl)phenyl)pyridin-4-yl)phenyl)-2-methoxypyridin-3-yl)methyl)piperidin-4-yl)acetamide] showed a pEC50 of 7.59. `COc1cc(-c2nccc(-c3cccc(NC(=O)c4ccc(CNC5CC6(COC6)C5)cn4)c3Cl)c2Cl)ccc1CNC1CC2(COC2)C1` (stereo not shown) [Example 695, 5-(((2-Oxaspiro[3.3]heptan-6-yl)amino)methyl)-N-(3-(2-(4-(((2-oxaspiro[3.3]heptan-6-yl)amino)methyl)-3-methoxyphenyl)-3-chloropyridin-4-yl)-2-chlorophenyl)picolinamide] had a negative logarithm of the EC50 (pEC50) of 6.77.

The compound `COC(=O)CN1CCc2cc(-c3nccc(-c4cccc(-c5ccc(CNC[C@@H]6CCC(=O)N6)c(OC)n5)c4Cl)c3Cl)cc(OC)c2C1` [Cmpd 150, methyl (S)-2-(6-(3-chloro-4-(2-chloro-3-(6-methoxy-5-((((5-oxopyrrolidin-2-yl)methyl)amino)methyl)pyridin-2-yl)phenyl)pyridin-2-yl)-8-methoxy-3,4-dihydroisoquinolin-2(1H)-yl)acetate] gave a pEC50 of 6.90.

As to `COc1cc(-c2nccc(-c3cccc4c3CCC[C@@H]4Nc3nc(OC)c(CNC[C@H](C)O)cc3C(F)(F)F)c2Cl)ccc1CNC[C@@H]1CCC(=O)N1` [Example 736, (S)-5-(((4-(3-Chloro-4-((S)-5-((5-((((S)-2-hydroxypropyl)amino)methyl)-6-methoxy-3-(trifluoromethyl)pyridin-2-yl)amino)-5,6,7,8-tetrahydronaphthalen-1-yl)pyridin-2-yl)-2-methoxybenzyl)amino)methyl)pyrrolidin-2-one], the pEC50 was at most 5.00.

In turn, `COc1nc(-c2cccc(-c3ccnc(-c4ccc(CNC5CCOCC5)c(OC(F)F)c4)c3Cl)c2Cl)ccc1CNC1CCOCC1` [Example 618, N-((6-(2-Chloro-3-(3-chloro-2-(3-(difluoromethoxy)-4-(((tetrahydro-2H-pyran-4-yl)amino)methyl)phenyl)pyridin-4-yl)phenyl)-2-methoxypyridin-3-yl)methyl)tetrahydro-2H-pyran-4-amine] had a pEC50 of 7.24. `COc1cc(-c2ncnc(-c3cccc(-c4ccc(CNC5CCN(C(C)=O)CC5)c(OC)n4)c3Cl)c2OC)ccc1CNC1CCN(C(C)=O)CC1` [Example 717, 1-(4-(((6-(3-(6-(4-(((1-Acetylpiperidin-4-yl)amino)methyl)-3-methoxyphenyl)-5-methoxypyrimidin-4-yl)-2-chlorophenyl)-2-methoxypyridin-3-yl)methyl)amino)piperidin-1-yl)ethan-1-one] had a pEC50 of at most 5.00. In turn, `COc1cc(-c2nccc(-c3cccc(-c4ccc(CNC[C@@H]5CCC(=O)N5)c(OC)n4)c3Cl)c2Cl)ccc1CNC[C@@H]1CCO1` [Cmpd 122, (S)-5-((((6-(2-chloro-3-(3-chloro-2-(3-methoxy-4-(((((S)-oxetan-2-yl)methyl)amino)methyl)phenyl)pyridin-4-yl)phenyl)-2-methoxypyridin-3-yl)methyl)amino)methyl)pyrrolidin-2-one] had a negative-log EC50 (pEC50) of 7.25.

Consider `COCCNCc1ccc(-c2nccc(-c3cccc(-c4ccc(CNCCOC)c(OC)n4)c3C(F)(F)F)c2Cl)cc1OC` [Example 614, N-((6-(3-(3-Chloro-2-(3-methoxy-4-(((2-methoxyethyl)amino)methyl)phenyl)pyridin-4-yl)-2-(trifluoromethyl)phenyl)-2-methoxypyridin-3-yl)methyl)-2-methoxyethan-1-amine], for which the pEC50 was at most 5.00.

Consider `COc1cc(-c2nccc(-c3cccc(NC(=O)c4ccc(CN5CC6(CNC(=O)C6)C5)cn4)c3Cl)c2Cl)ccc1CN1CC2(CNC(=O)C2)C1` [Example 672, N-(2-Chloro-3-(3-chloro-2-(3-methoxy-4-((7-oxo-2,6-diazaspiro[3.4]octan-2-yl)methyl)phenyl)pyridin-4-yl)phenyl)-5-((7-oxo-2,6-diazaspiro[3.4]octan-2-yl)methyl)picolinamide], for which the negative logarithm of the EC50 (pEC50) is 6.66. Next, `COc1cc(-c2nccc(-c3nccc(-c4ccc(CNC5CCN(C(C)=O)CC5)c(OC)n4)c3Cl)c2Cl)ccc1CNC1CCN(C(C)=O)CC1` [Example 668, 1-(4-((4-(5-(((1-acetylpiperidin-4-yl)amino)methyl)-3′,3″-dichloro-6-methoxy-[2,4′:2′,4″-terpyridin]-2″-yl)-2-methoxybenzyl)amino)piperidin-1-yl)ethan-1-one]: 6.61.
